# Target: T1, ERR1 (also known as ERR-α or ERR-1) (Homo sapiens, UniProt P11474)
# T1 sequence (P11474 193-421 limits assumed): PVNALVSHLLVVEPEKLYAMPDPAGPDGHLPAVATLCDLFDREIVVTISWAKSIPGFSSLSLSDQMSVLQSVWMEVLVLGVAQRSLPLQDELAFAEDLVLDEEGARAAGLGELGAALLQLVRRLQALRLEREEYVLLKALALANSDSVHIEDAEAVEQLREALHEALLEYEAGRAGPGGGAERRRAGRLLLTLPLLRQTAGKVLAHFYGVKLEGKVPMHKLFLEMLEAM
# Assay: TR-FRET assay (disruption of co-activator peptide binding to ERR1 LBD)
# Format: biochemical
# Conditions: 6 nM 6His-ERR1LBD, 6 nM GST-SRC-2 peptide; average of 3 independent experiments
# Procedure, shortened: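 Homogeneous TR-FRET measuring displacement of GST-hSRC2 co-activator peptide (6 nM) from His-tagged ERR1 LBD (6 nM), detected with α-GST Eu cryptate (30 nM) and α-His-XL665 (7.5 nM). Buffer 25 mM Tris pH 8, 2.5 mM Hepes, 20 mM KCl, 1 mM DTT, 0.05 mg/mL delipidated BSA; equilibration 4-18 h at 25° C. Hyperbolic dose-response fit, mean of 3 experiments.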
row,Compound,EC50 [nM]
1,"O=C1OCCC1N1C(=O)S/C(=C\c2ccc3c(cnn3Cc3ccc(C(F)(F)F)cc3C(F)(F)F)c2)C1=O (centres unmarked) [Compound 65, (5Z)-5-({1-[2,4-Bis(trifluoromethyl)benzyl]-1H-indazol-5-yl}methylidene)-3-(2-oxotetrahydrofuran-3-yl)-1,3-thiazolidine-2,4-dione]",50
2,"CCN1CC[C@H](N2C(=O)S/C(=C\c3ccc4c(cnn4Cc4ccc(Cl)cc4C(F)(F)F)c3)C2=O)C1 [Compound 119, (5Z)-5-({1-[4-Chloro-2-(trifluoromethyl)benzyl]-1H-indazol-5-yl}methylidene)-3-[(3S)-1-ethylpyrrolidin-3-yl]-1,3-thiazolidine-2,4-dione]",40
3,"CC(C)N1C[C@@H](F)[C@H](N2C(=O)S/C(=C\c3ccc4c(cnn4Cc4ccc(Cl)cc4C(F)(F)F)c3)C2=O)C1 (relative stereo) [Compound 321, (5Z)-5-({1-[4-Chloro-2-(trifluoromethyl)benzyl]-1H-indazol-5-yl}methylidene)-3-[trans-4-fluoro-1-(1-methylethyl)pyrrolidin-3-yl]-1,3-thiazolidine-2,4-dione]",43
4,"N#Cc1nn(Cc2ccc(Cl)cc2C(F)(F)F)c2ccc(/C=C3\SC(=O)N(CC(=O)O)C3=O)cc12 [Compound 416, [(5Z)-5-({1-[4-Chloro-2-(trifluoromethyl)benzyl]-3-cyano-1H-indazol-5-yl}methylidene)-2,4-dioxo-1,3-thiazolidin-3-yl]acetic acid]",35
5,"O=C1S/C(=C\c2ccc3c(cnn3Cc3ccc(Cl)cc3C(F)(F)F)c2)C(=O)N1[C@@H]1CCN[C@@H](CO)C1 (relative stereo) [Compound 269, (5Z)-5-({1-[4-Chloro-2-(trifluoromethyl)benzyl]-1H-indazol-5-yl}methylidene)-3-[trans-2-(hydroxymethyl)piperidin-4-yl]-1,3-thiazolidine-2,4-dione]",67
6,"COC(=O)C(Cc1cccnc1)N1C(=O)S/C(=C\c2ccc3c(cnn3Cc3ccc(Cl)cc3C(F)(F)F)c2)C1=O (centres unmarked) [Compound 217, Methyl 2-[(5Z)-5-({1-[4-chloro-2-(trifluoromethyl)benzyl]-1H-indazol-5-yl}methylidene)-2,4-dioxo-1,3-thiazilidin-3-yl]-3-pyridin-3-ylpropanoate]",41
7,"N[C@H]1CC[C@H](CN2C(=O)S/C(=C\c3ccc4c(cnn4Cc4ccc(Cl)cc4C(F)(F)F)c3)C2=O)CC1 [Compound 284, (5Z)-3-[(trans-4-Aminocyclohexyl)methyl]-5-({1-[4-chloro-2-(trifluoromethyl)benzyl]-1H-indazol-5-yl}methylidene)-1,3-thiazolidine-2,4-dione]",129
8,"NC1(CCN2C(=O)S/C(=C\c3ccc4c(cnn4Cc4ccc(C(F)(F)F)cc4C(F)(F)F)c3)C2=O)CCOCC1 [Compound 313, (5Z)-3-[2-(4-Aminotetrahydro-2H-pyran-4-yl)ethyl]-5-({1-[2,4-bis(trifluoromethyl)benzyl]-1H-indazol-5-yl}methylidene)-1,3-thiazolidine-2,4-dione]",700

# Compounds with a lower EC50, results first:
row,EC50 [nM],Compound
1,17,"O=C1S/C(=C\c2ccc3c(cnn3Cc3ccc(Cl)cc3C(F)(F)F)c2)C(=O)N1N1CCN(CCO)CC1 [Compound 354, (5Z)-5-({1-[4-Chloro-2-(trifluoromethyl)benzyl]-1H-indazol-5-yl}methylidene)-3-[4-(2-hydroxyethyl)piperazin-1-yl]-1,3-thiazolidine-2,4-dione]"
2,16,"O=C1S/C(=C\c2ccc3c(cnn3Cc3ccc(Cl)cc3C(F)(F)F)c2)C(=O)N1C1CCNCC1 [Compound 113, (5Z)-5-({1-[4-Chloro-2-(trifluoromethyl)benzyl]-1H-indazol-5-yl}methylidene)-3-piperidin-4-yl-1,3-thiazolidine-2,4-dione]"
3,32,"CS(=O)(=O)NCCN1C(=O)S/C(=C\c2ccc3c(cnn3Cc3ccc(Cl)cc3C(F)(F)F)c2)C1=O [Compound 393, N-{2-[(5Z)-5-({1-[4-Chloro-2-(trifluoromethyl)benzyl]-1H-indazol-5-yl}methylidene)-2,4-dioxo-1,3-thiazolidin-3-yl]ethyl}methanesulfonamide]"

# Reference: patent publication US8796256B2 (Janssen Pharmaceutica NV, priority 2010, dated 2014)
